Test results as given in US12486290B2, “Isoindolinone and indazole compounds for the degradation of EGFR” (C4 THERAPEUTICS, INC., priority 2019, dated 2025).

Biological target: T1, EGFR T790M/L858R (NCI-H1975 cells) (Homo sapiens, UniProt P00533, L858R/T790M)
T1 construct: NCI-H1975 (harboring EGFR heterozygous T790M/L858R mutations); host or cells: NCI-H1975
Assay: EGFR (L858R) degradation analysis, Total EGFR (L858R) HTRF, NCI-H1975 cells
Assay type: cell-based
Details: 6 hours
From the text: NCI-H1975 (harboring EGFR heterozygous T790M/L858R mutations) and NCI-H3255 (harboring EGFR heterozygous L858R mutation) were purchased from ATCC and NCI, respectively. NCI-H1975+CS (harboring EGFR heterozygous T/790M/L858R/C797S mutations) was generated using CRISPR technology to introduce the additional C797S mutation by Horizon Discovery. RPMI 1640 no-phenol red medium and fetal bovine serum (FBS) were purchased from Gibco (Grand Island, NY, USA). Cell culture flasks and 384-well microplates were acquired from VWR (Radnor, PA, USA). Total EGFR (L858R) HTRF assay kits were purchased from Cisbio (Bedford, MA, USA).
Degradation of EGFR protein containing L858R mutation was determined based on quantification of FRET signal using Total EGFR (L858R) HTRF assay kit. Test compounds were added to the 384-well plate from a top concentration of 10 μM with 11 points, half log titration in duplicates. NCI-H1975, NCI-H1975+CS or NCI-H3255 cells were added into 384-well plates at a cell density of 10000, 10000 or 1000 cells per well, respectively. The plates were kept at 37° C. with 5% CO2 for 6 hours. Cells treated in the absence of the test compound were the negative control. Positive control was set by wells containing all reagents but no cells. FRET signal was acquired on EnVision™ Multilabel Reader (PerkinElmer, Santa Clara, CA, USA).

T1 sequence (P00533 25-1210 T790M/L858R): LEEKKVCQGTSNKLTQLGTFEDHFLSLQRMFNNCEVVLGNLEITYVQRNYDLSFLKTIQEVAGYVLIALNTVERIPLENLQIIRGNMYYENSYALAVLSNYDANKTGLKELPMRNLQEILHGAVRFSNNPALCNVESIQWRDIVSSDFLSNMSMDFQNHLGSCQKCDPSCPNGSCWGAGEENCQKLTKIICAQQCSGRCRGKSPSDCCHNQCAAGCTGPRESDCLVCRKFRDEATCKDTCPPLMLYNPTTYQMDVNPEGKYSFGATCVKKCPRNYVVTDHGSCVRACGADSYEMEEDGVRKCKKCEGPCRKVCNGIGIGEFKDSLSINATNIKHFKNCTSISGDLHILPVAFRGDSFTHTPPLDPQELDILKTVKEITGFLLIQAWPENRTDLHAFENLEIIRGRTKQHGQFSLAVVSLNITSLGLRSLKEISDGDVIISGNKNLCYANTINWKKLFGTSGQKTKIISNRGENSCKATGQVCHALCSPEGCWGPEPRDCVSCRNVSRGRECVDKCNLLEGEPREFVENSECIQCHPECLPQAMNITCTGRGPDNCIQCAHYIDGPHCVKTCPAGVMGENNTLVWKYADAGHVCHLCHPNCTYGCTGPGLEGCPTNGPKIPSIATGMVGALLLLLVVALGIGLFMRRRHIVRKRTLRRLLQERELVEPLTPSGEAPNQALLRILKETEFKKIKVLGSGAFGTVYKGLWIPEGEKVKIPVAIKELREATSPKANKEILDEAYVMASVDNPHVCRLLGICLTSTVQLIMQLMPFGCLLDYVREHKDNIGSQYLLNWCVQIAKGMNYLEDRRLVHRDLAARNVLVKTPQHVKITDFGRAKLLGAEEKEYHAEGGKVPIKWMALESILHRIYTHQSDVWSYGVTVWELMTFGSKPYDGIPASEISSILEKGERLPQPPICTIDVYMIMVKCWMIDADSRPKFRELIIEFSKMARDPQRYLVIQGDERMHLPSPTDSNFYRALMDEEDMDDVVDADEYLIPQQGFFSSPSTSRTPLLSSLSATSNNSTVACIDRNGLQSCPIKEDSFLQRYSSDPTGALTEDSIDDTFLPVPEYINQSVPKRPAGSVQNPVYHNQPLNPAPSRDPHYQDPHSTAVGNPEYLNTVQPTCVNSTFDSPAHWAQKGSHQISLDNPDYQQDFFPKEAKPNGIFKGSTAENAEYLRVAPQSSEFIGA

Row | Compound | DC50 [nM]
1 | O=C1NC(=O)C2(Nc3ccc(C4CCN(CC(=O)N5CCC(Oc6ccc(-c7cc(F)c8c(c7)C(=O)N(C(C(=O)Nc7nccs7)c7ncn9c7CCC9)C8)cc6)CC5)CC4)cc3)CC1C2 (stereo not shown) [Compound 38, 2-(6,7-dihydro-5H-pyrrolo[1,2-c]imidazol-1-yl)-2-(6-(4-((1-(2-(4-(4-((2,4-dioxo-3-azabicyclo[3.1.1]heptan-1-yl)amino)phenyl)piperidin-1-yl)acetyl)piperidin-4-yl)oxy)phenyl)-4-fluoro-1-oxoisoindolin-2-yl)-N-(thiazol-2-yl)acetamide] | 52
2 | Cn1nc(N2CCC(=O)NC2=O)c2ccc(C3CCN(CC(=O)N4CC5(C4)CN(c4ccc(-c6cc(F)c7c(c6)C(=O)N(C(C(=O)Nc6nccs6)c6ncn8c6CCC8)C7)cc4)C5)CC3(F)F)cc21 (stereo not shown) [Compound 50, 2-(6,7-dihydro-5H-pyrrolo[1,2-c]imidazol-1-yl)-2-[6-[4-[2-[2-[4-[3-(2,4-dioxohexahydropyrimidin-1-yl)-1-methyl-indazol-6-yl]-3,3-difluoro-1-piperidyl]acetyl]-2,6-diazaspiro[3.3]heptan-6-yl]phenyl]-4-fluoro-1-oxo-isoindolin-2-yl]-N-thiazol-2-yl-acetamide] | 10
3 | Cn1nc(N2CCC(=O)NC2=O)c2ccc(C3CCN(CC(=O)N4CC5(C4)CN(c4ccc(-c6cc(F)c7c(c6)C(=O)N(C(C(=O)Nc6ccccn6)c6ncn8c6CCC8)C7)cc4)C5)CC3)cc21 (stereo not shown) [Compound 54, 2-(6,7-dihydro-5H-pyrrolo[1,2-c]imidazol-1-yl)-2-[6-[4-[2-[2-[4-[3-(2,4-dioxohexahydropyrimidin-1-yl)-1-methyl-indazol-6-yl]-1-piperidyl]acetyl]-2,6-diazaspiro[3.3]heptan-6-yl]phenyl]-4-fluoro-1-oxo-isoindolin-2-yl]-N-(2-pyridyl)acetamide] | 16
4 | Cn1nc(N2CCC(=O)NC2=O)c2ccc(C3CCN(CC(=O)N4CC5(C4)CN(c4ccc(-c6cc(F)c7c(c6)C(=O)N(C(C(=O)Nc6ccccn6)c6ncn8c6CCC8)C7)cc4)C5)CC3(F)F)cc21 (stereo not shown) [Compound 55, 2-(6,7-dihydro-5H-pyrrolo[1,2-c]imidazol-1-yl)-2-[6-[4-[2-[2-[4-[3-(2,4-dioxohexahydropyrimidin-1-yl)-1-methyl-indazol-6-yl]-3,3-difluoro-1-piperidyl]acetyl]-2,6-diazaspiro[3.3]heptan-6-yl]phenyl]-4-fluoro-1-oxo-isoindolin-2-yl]-N-(2-pyridyl)acetamide] | 11

Further lines, results first:

Row | DC50 [nM] | Compound
5 | 88 | O=C1CC[C@H](Nc2ccc(C3CCN(CC(=O)N4CCC(Oc5ccc(-c6cc(F)c7c(c6)C(=O)N(C(C(=O)Nc6nccs6)c6ncn8c6CCC8)C7)cc5)CC4)CC3)c(F)c2)C(=O)N1 (stereo partly drawn) [Compound 39, 2-(6,7-dihydro-5H-pyrrolo[1,2-c]imidazol-1-yl)-2-(6-(4-((1-(2-(4-(4-(((S)-2,6-dioxopiperidin-3-yl)amino)-2-fluorophenyl)piperidin-1-yl)acetyl)piperidin-4-yl)oxy)phenyl)-4-fluoro-1-oxoisoindolin-2-yl)-N-(thiazol-2-yl)acetamide]
6 | 26 | O=C1CC[C@H](Nc2ccc(C3CCN(CC(=O)N4CC[C@@H](Oc5ccc(-c6cc(F)c7c(c6)C(=O)N(C(C(=O)Nc6nccs6)c6ncn8c6CCC8)C7)cc5)C4)CC3)cc2)C(=O)N1 (stereo partly drawn) [Compound 41, 2-(6,7-dihydro-5H-pyrrolo[1,2-c]imidazol-1-yl)-2-[6-[4-[(3R)-1-[2-[4-[4-[[(3S)-2,6-dioxo-3-piperidyl]amino]phenyl]-1-piperidyl]acetyl]pyrrolidin-3-yl]oxyphenyl]-4-fluoro-1-oxo-isoindolin-2-yl]-N-thiazol-2-yl-acetamide]
7 | 20 | O=C1CC[C@H](Nc2ccc(C3CCN(CC(=O)N4CC[C@H](Oc5ccc(-c6cc(F)c7c(c6)C(=O)N(C(C(=O)Nc6nccs6)c6ncn8c6CCC8)C7)cc5)C4)CC3)cc2)C(=O)N1 (stereo partly drawn) [Compound 42, 2-(6,7-dihydro-5H-pyrrolo[1,2-c]imidazol-1-yl)-2-[6-[4-[(3S)-1-[2-[4-[4-[[(3S)-2,6-dioxo-3-piperidyl]amino]phenyl]-1-piperidyl]acetyl]pyrrolidin-3-yl]oxyphenyl]-4-fluoro-1-oxo-isoindolin-2-yl]-N-thiazol-2-yl-acetamide]
